Reference: patent US20130072505A1, “6,9-Disubstituted Purine Derivatives and Their Use for Treating Skin” (priority 2006, published 2013)
“Also recorded” adds a separate entry of the source. Like-named read-outs stand apart in the source and are kept apart here. Marks after values point to notes of the source that are not given here.

Legend:
[1] = system: human myeloid leukemia K-562; assay: in vitro cytotoxic activity, Calcein AM microtiter assay; type: cell-based; details: K562, 72 hours, highest concentration 166.7 μM
Procedure: (§1) In vitro cytotoxic activity of several of the 6,9-disubstituted purine derivatives of this invention was determined using a microtiter assay with Calcein AM and a panel of cell lines of different histogenetic and species origin; kinetin was also examined as a control. Because only metabolically active cells cleave Calcein AM (tetraacetoxymethyl ester of calcein), the intracellular concentration of calcein corresponds to the number of vital cells in the culture.
(§2) The following cell lines were used: human osteosarcoma (HOS); breast carcinoma MCF-7; human myeloid leukemia K-562; and mouse fibroblasts NIH3T3. The cells were maintained in Nunc/Corning 80 cm^2 plastic tissue culture flasks and cultured in cell culture medium (DMEM with 5 g/l glucose, 2 mM glutamine, 100 U/ml penicillin, 100 μg/ml streptomycin, 10% fetal calf serum, and sodium bicarbonate).
(§3) The cell suspensions were prepared and diluted according to the particular cell type and the expected target cell density (2.500-30.000 cells per well based on cell growth characteristics) were added by pipette (80 μl) into 96/well microtiter plates. Inoculates were allowed a pre-incubation period of 24 hours at 37° C. and 5% CO2 for stabilization. Four-fold dilutions of the intended test concentration were added at time zero in 20 μl aliquots to the microtiter plate wells. The test compounds were generally evaluated at six 4-fold dilutions. The highest well concentration used in the present study was 166.7 μM. All samples were examined in triplicates. Incubations of cells with the tested compounds was for 72 hours at 37° C., in 5% CO2 atmosphere and 100% humidity. At the end of the incubation period, Calcein AM was added to a final concentration of 1 μg/ml incubated for 1 hour. Fluorescence intensity (FI) was measured with a Labsystem FIA Reader Fluoroscan Ascent (UK). The cell survival (GI50) was calculated using the following equation: GI50=([…])/(mean FIcontrol well−mean FIblank)×100%. The GI50 value, the drug concentration lethal to 50% of the cells, was calculated from the obtained dose response curves.

human osteosarcoma (HOS) = assay: as above; type: cell-based; details: 72 hours, highest concentration 166.7 μM
Procedure: as §1, §2, §3

breast carcinoma MCF-7 = assay: as above; type: cell-based; details: Homo sapiens, MCF7; 72 hours; highest concentration 166.7 μM
Procedure: as §1, §2, §3

mouse fibroblasts NIH3T3 = assay: as above; type: cell-based; details: read-out: GI50 NIH-3T3
Procedure: as §1, §2, §3

[2] = system: Human forskin fibroblasts (cell line BJ); assay: in vitro cytotoxic activity, MTT assay; type: cell-based; details: 72 hours; BJ fibroblasts at middle passage
Procedure: In vitro cytotoxic activity of several of the 6,9-disubstituted purine derivatives of this invention against human diploid fibroblasts was determined by standard MTT assay optimized for 96-well plates. The assay is based on spectrofotometric measurement of the product of metabolic conversion of MTT by mitochondria of living cells.
Human forskin fibroblasts (cell line BJ) at middle passage were maintained in 75 cm^2 plastic tissue culture flasks and cultured in cell culture medium (DMEM with 5 g/l glucose, 2 mM glutamine, 100 U/ml penicillin, 100 μg/ml streptomycin, 10% fetal calf serum, and sodium bicarbonate).
About 5,000 cells were seeded per well of the 96-well plate. After 24 hours the cell culture medium was replaced with the cell culture medium containing a test compound. The test compounds were evaluated at six 2-fold dilutions. The highest concentration used in the present study was usually 200 μM. In the case of compounds with limited solubility in the culture medium the highest concentration was adjusted. Every test compound was examined in five replicates. Cells with the test compounds were incubated for 72 hours at 37° C. in 5% CO2 atmosphere and 100% humidity. At the end of the incubation period, the culture medium was replaced with the cell culture medium containing MTT (0.5 mg/ml) and cells were incubated for another 3 hours. The formazan formed was solubilized by DMSO and absorbance at 570 nm was measured. Ability of the tested compounds to inhibit MTT reducing activity of the cells was calculated as IC=(Acompound exposed well−mean Ablank)/(mean Acontrol well−meanAblank)×100%. IC10, the drug concentration causing 10% decrease in MTT reducing activity, was calculated from the obtained dose response curves.

[3] = system: Human diploid fibroblasts (HCA cells); assay: inhibition of senescence, β-galactosidase staining; type: cell-based; details: test compounds about 50 μM at each passage; for Senescent Cells (%) HCA25: passage 25; for Senescent Cells (%) HCA80: passage 80
Procedure: Inhibition of senescence by several of the 6,9-disubstituted purine derivatives of this invention was determined; kinetin was also evaluated as a control. […] The medium used for the cell cultivation was removed, the cells were washed twice in PBS, and fixed in 2-3 ml of fixing solution comprised of a 2% formaldehyde and 0.2% glutaraldehyde in PBS. The cells were incubated at room temperature for 5 minutes, and then washed twice with PBS. The cells were subsequently incubated at 37° C. (without CO2) for 1 to 16 hours in 2-3 ml of the solution comprising potassium ferricyanide (5 mM), potassium ferrocyanide (5 mM), MgCl2 (2 mM), X-gal (5-bromo-4-chloro-3-indolyl-β-D-galactopyranoside) (1 mg/ml), in citric/phosphate buffer (pH 6.0). The test compounds (about 50 μM) were added to the medium at each passage. […] In this experiment, only senescent cells were stained blue due to the action of β-galactosidase on the substrate.

photodamaged facial skin = assay: earlier clinical study of topically applied kinetin (0.1%); type: in vivo, human; details: kinetin 0.1% topical; for Mean Improvement from Baseline: Coarse Wrinkles / Mean Improvement from Baseline: Fine Wrinkles / Mean Improvement from Baseline: Mottled Hyperpigmentation / Mean Improvement from Baseline: Overall Skin Condition / Mean Improvement from Baseline: Roughness: expert evaluation; for Subjects Reporting Improvement from Baseline: Blotchiness / Subjects Reporting Improvement from Baseline: Color / Subjects Reporting Improvement from Baseline: Fine Wrinkles / Subjects Reporting Improvement from Baseline: Texture: self assessment
Description: This Example compares the clinical data for topically applied 6-furfurylamino-9-(2-tetrahydropyranyl)purine (0.10%) taken from Example 23 with similar clinical data generated for topically applied kinetin (0.1%) from an earlier study. The protocol for the earlier clinical trial for kinetin was similar to the protocol as described in Example 23 for the inventive compound; thirty two female volunteers completed the earlier kinetin study. This comparison is based on the expert evaluations and self evaluations of skin condition for eight and twelve week data for some of the parameters evaluated in both studies.

[4] = system: cultured human fibroblasts; details: cited from earlier work
[5] = system: Rat C6 glioma (ATCC No. CCL107); assay: anti-inflammatory activity: isoproterenol-induced intracellular cAMP synthesis; type: cell-based; details: cAMP after 30 min with (−)-isoproterenol
Procedure: Anti-inflammatory activity of several of the 6,9-disubstituted purine derivatives of this invention was determined; kinetin was also evaluated as a control. Rat C6 glioma (ATCC No. CCL107) was cultivated in monolayer in serum-free chemically defined medium containing Ham's F10/minimal essential medium (1:1 v/v), 2 mM L-glutamine, 1% (v/v) minimal essential medium vitamins (100×), 1% (v/v) minimal essential medium nonessential amino acids (100×), 100 U/ml penicillin, […], and 30 nM sodium selenite. Incubation was performed at 37° C. in a humidified atmosphere. The assays were performed in the logaritmic growth phase at a density of 2.5×10^5 cells/cm^2. Intracellular cAMP synthesis was induced by addition of 5 mM (−)-isoproterenol; various amounts of test compounds were added at the same time as the (−)-isoproterenol. After 30 min incubation at 37° C., the medium was removed and the cellular amount of cAMP was determined using the cAMP-enzyme immunoassay kit from Amersham. The I50 value was determined from a dose-response curve in duplicate.

**Q.** With `COc1ccc(CNc2ncnc3c2ncn3C2CCCCO2)cc1` (centres unmarked) [6-(4-methoxybenzylamino)-9-(2-tetrahydropyranyl)purine] as the compound, how does the GI50 [1] read?
**A.** Its GI50 is > 167 µM.

**Q.** What about the GI50 (human osteosarcoma (HOS)) of the same compound?
**A.** Its GI50 is > 167 µM.

**Q.** And the GI50 (breast carcinoma MCF-7)?
**A.** The GI50 was > 167 µM.

**Q.** What about the GI50 (mouse fibroblasts NIH3T3; NIH3T3, 72 hours, highest concentration 166.7 μM) of the same compound?
**A.** The GI50 was > 167 µM.

**Q.** And the “IC10 (concentration causing 10% decrease in MTT reducing activity)” value [2]?
**A.** The value was >100 µM.

**Q.** And the “Senescent Cells (%) HCA50” value [3]?
**A.** Its value is 3%.

**Q.** And the “Senescent Cells (%) HCA25” value [3]?
**A.** The value was 4%.

**Q.** And the “Senescent Cells (%) HCA80” value [3]?
**A.** Its value is 26%.

**Q.** And the melting point?
**A.** The melting point was 137 to 138 °C.

**Q.** For `c1coc(CNc2ncnc3nc[nH]c23)c1` [Kinetin, N6-furfuryl-adenine], which “Mean Improvement from Baseline: Coarse Wrinkles” value (photodamaged facial skin; Eight Week Data) is on record?
**A.** The value was 4%.

**Q.** What about the “Mean Improvement from Baseline: Fine Wrinkles” value (photodamaged facial skin; Eight Week Data) of the same compound?
**A.** Its value is 2%.

**Q.** And the “Mean Improvement from Baseline: Mottled Hyperpigmentation” value (photodamaged facial skin; Eight Week Data)?
**A.** The value was 25%*.

**Q.** And the “Mean Improvement from Baseline: Overall Skin Condition” value (photodamaged facial skin; Eight Week Data)?
**A.** Its value is 3%.

**Q.** What about the “Mean Improvement from Baseline: Roughness” value (photodamaged facial skin; Eight Week Data) of the same compound?
**A.** Its value is 35%.

**Q.** And the “Mean Improvement from Baseline: TEWL” value (photodamaged facial skin; Eight Week Data)?
**A.** The value was 13%.

**Q.** What about the “Subjects Reporting Improvement from Baseline: Blotchiness” value (photodamaged facial skin; Eight Week Data) of the same compound?
**A.** Its value is 50%.

**Q.** What about the “Subjects Reporting Improvement from Baseline: Color” value (photodamaged facial skin; Eight Week Data) of the same compound?
**A.** The value was 53%.

**Q.** And the “Subjects Reporting Improvement from Baseline: Fine Wrinkles” value (photodamaged facial skin; Eight Week Data)?
**A.** The value was 57%.

**Q.** What about the “Subjects Reporting Improvement from Baseline: Texture” value (photodamaged facial skin; Eight Week Data) of the same compound?
**A.** Its value is 77%.

**Q.** What about the “Mean Improvement from Baseline: Coarse Wrinkles” value (photodamaged facial skin; Twelve Week Data) of the same compound?
**A.** The value was 4%.

**Q.** And the “Mean Improvement from Baseline: Fine Wrinkles” value (photodamaged facial skin; Twelve Week Data)?
**A.** The value was 6%*.

**Q.** And the “Mean Improvement from Baseline: Mottled Hyperpigmentation” value (photodamaged facial skin; Twelve Week Data)?
**A.** The value was 25%*.

**Q.** What about the “Mean Improvement from Baseline: Overall Skin Condition” value (photodamaged facial skin; Twelve Week Data) of the same compound?
**A.** The value was 4%*.

**Q.** What about the “Mean Improvement from Baseline: Roughness” value (photodamaged facial skin; Twelve Week Data) of the same compound?
**A.** Its value is 52%*.

**Q.** And the “Mean Improvement from Baseline: TEWL” value (photodamaged facial skin; Twelve Week Data)?
**A.** Its value is 15%.

**Q.** What about the “Subjects Reporting Improvement from Baseline: Blotchiness” value (photodamaged facial skin; Twelve Week Data) of the same compound?
**A.** The value was 74%.

**Q.** And the “Subjects Reporting Improvement from Baseline: Color” value (photodamaged facial skin; Twelve Week Data)?
**A.** Its value is 71%.

**Q.** And the “Subjects Reporting Improvement from Baseline: Fine Wrinkles” value (photodamaged facial skin; Twelve Week Data)?
**A.** Its value is 71%.

**Q.** What about the “Subjects Reporting Improvement from Baseline: Texture” value (photodamaged facial skin; Twelve Week Data) of the same compound?
**A.** The value was 87%.

**Q.** What about the GI50 [1] of the same compound?
**A.** Its GI50 is 164 µM.

**Q.** And the GI50 (human osteosarcoma (HOS))?
**A.** Its GI50 is > 167 µM.

**Q.** And the GI50 (breast carcinoma MCF-7)?
**A.** The GI50 was > 167 µM.

**Q.** What about the GI50 (mouse fibroblasts NIH3T3; NIH3T3, 72 h) of the same compound?
**A.** The GI50 was 155 µM.

**Q.** What about the “morphological and biochemical characteristics associated with serial passaging of cells” value [4] of the same compound?
**A.** The value was “delayed the onset and decreased the extent of many morphological and biochemical characteristics associated with serial passaging of cells”.

**Q.** And the “Senescent Cells (%) HCA50” value [3]?
**A.** The value was 5%.

**Q.** What about the “Senescent Cells (%) HCA25” value [3] of the same compound?
**A.** The value was 3%.

**Q.** What about the “Senescent Cells (%) HCA80” value [3] of the same compound?
**A.** The value was 38%.

**Q.** And the “Anti-inflammatory Activity Effect” value [5]?
**A.** Its value is “inactive; also recorded: Not active”.
